The record followed here is patent US20030109705A1, “Novel cyanoenamines useful as ligands for modulating gene expression in plants or animals” (priority 2001, published 2003).

For data set [1], the target named is T1, truncated Manduca EcR-VP16 (Manduca sexta, UniProt P49883).
T1 construct: A truncated Manduca EcR containing domains C, D and E of the receptor was constructed as follows; engineered start Met (in-frame ATG) (N); expressed in transfected cells; host or cells: S2 Drosophila cells (ATCC CRL-1963), transiently transfected with plasmid MMV (pPacU backbone)
T1 sequence (P49883 112-535, added parts left off): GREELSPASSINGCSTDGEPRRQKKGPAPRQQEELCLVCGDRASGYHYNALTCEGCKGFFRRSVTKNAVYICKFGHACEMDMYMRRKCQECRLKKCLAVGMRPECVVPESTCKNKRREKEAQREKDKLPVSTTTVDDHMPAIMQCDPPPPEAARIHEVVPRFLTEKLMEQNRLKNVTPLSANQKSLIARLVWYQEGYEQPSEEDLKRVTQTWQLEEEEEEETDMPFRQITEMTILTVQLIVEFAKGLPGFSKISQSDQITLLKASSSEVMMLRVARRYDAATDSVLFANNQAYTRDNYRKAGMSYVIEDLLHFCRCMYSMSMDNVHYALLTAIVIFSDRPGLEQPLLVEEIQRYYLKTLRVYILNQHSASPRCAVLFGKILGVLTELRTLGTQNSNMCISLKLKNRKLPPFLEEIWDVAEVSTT
T1 sequence (P20153 whole entry partner, the tested form may be a part): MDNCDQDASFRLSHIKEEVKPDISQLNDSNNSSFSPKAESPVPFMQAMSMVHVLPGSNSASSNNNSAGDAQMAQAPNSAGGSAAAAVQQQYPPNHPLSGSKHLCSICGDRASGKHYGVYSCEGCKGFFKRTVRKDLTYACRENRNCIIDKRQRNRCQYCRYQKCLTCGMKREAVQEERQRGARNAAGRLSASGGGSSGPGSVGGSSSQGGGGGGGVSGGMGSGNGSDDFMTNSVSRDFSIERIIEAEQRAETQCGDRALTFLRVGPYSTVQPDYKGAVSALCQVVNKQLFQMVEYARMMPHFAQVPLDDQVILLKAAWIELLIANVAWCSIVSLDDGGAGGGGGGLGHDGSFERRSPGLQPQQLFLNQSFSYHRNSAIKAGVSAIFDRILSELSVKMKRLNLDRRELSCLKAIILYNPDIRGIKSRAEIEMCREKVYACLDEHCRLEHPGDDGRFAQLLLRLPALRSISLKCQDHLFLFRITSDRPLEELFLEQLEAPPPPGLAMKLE
Description: Cell-based luciferase reporter assay of transcriptional activation by EcR receptor plasmid (MMV) in S2 Drosophila cells. Particulars: ligand 2 μM, harvested 24 hours after addition, ratio relative to reporter construct without ligand. The text has this:
A minimal promoter vector was made by ligating a synthetic TATA box sequence oligonucleotide pair, 5′-agcttgagggtataatg-3′ (SEQ ID NO: 1) and 3′-actcccatattactcga-5′ (SEQ ID NO:2), into the HindIII site of vector pGL3-basic (Promega) so that the HindIII site was recreated 5′ to the inserted oligonucleotide and destroyed between the oligonucleotide and the downstream luciferase gene. This vector was designated TATA5.
The binding site from the hsp27 gene (Koelle et al., Cell 67(1): 59-77 (1991)) was made with the oligonucleotide pair, 5′-[…]-3′ (SEQ ID NO:3) and 3′-[…]-5′ (SEQ ID NO:4). This site was multimerized and ligated into the BglII site of vector TATA-5. One isolate, pCGS154, contained the sequence below in the inserted region, having 2 pairs of sites in inverted orientations. […] The sequence of the inserted region in pCGS154 is shown below:
PCR primers were designed based on the published sequence for Manduca Sexta ecdysone receptor (EcR) (genbank accession number U19812 (SEQ ID Nos:6 and 7) to clone the gene in two halves. RNA was prepared from prepupae larva of Manduca sexta using the LiCl/phenol method (Current Protocols in Molecular Biology, Vol. 1, Unit 4.3, 1987, John Wiley and Sons, publishers) and 1 μg of total RNA was used to prepare cDNA using MMLV reverse transcriptase (Promega). The cDNA was used in a PCR reaction with the primers described above to generate two PCR products for the 5′ and 3′ halves of the gene. These were subcloned into the pGEM-TA vector (Promega) and sequenced. The two fragments were joined at a unique Ndel site within each fragment and ligated into pBS-KS (Stratagene) to create a full length Manduca sexta EcR clone named pBSFLMa. A HindIII site followed by an inframe stop codon and BamHI site was placed at the 3′ end of the E domain (ligand binding domain) of the Manduca EcR receptor using the oligonucleotide: 5′-[…]-3′ (SEQ ID NO:8).
A truncated Manduca EcR containing domains C, D and E of the receptor was constructed as follows. A BamHI site and in-frame ATG was engineered just 5′ to the C domain using the degenerate primers 5′-ggatccatgggycgagaagaattrtcaccr-3′ (SEQ ID NO:9) and 5′-ccacrtcccagatctcctcga-3′ (SEQ ID NO:10). This fragment was then joined using the Nde site to the 3′ end of Manduca EcR, which has an engineered HindIII site at the 3′ end as described above.
A fragment containing the herpes simplex VP16 transactivation domain was cloned from plasmid 35S/USP-VP16 (U.S. Pat. No. 5,880,333) using the PCR primers 5′-aagcttgcccccccgaccg-3′ (SEQ ID NO:11) (placing a HindIII site at the 5′ end of the domain) and 5′-[…]-3′ (SEQ ID NO:12) (placing an inframe stop codon followed by BamHI and Xbal sites at the 3′ end of the domain). The VP16 domain was fused in frame to the 3′ end of the E domain of the ecdysone receptor using the HindIII site 3′ to EcR clone and the HindIII site engineered at the 5′ end of VP16.
The plasmid pPacU (Courey A J and Tjian R (1988) Cell 55, 887-898) was used as the starting vector for expression constructs. The truncated Manduca EcR-VP16 was ligated into pPacU using the BamHI sites flanking the coding region to create the construct referred to as MMV.
An in vivo cell based assay was used to measure transcriptional activation by the EcR receptor plasmid in the presence of the chemical ligands as described above. S2 Drosophila cells (ATCC CRL-1963) (commonly known as cells from the fruit fly) were transiently transfected with luciferase reporter (pCGS154) and receptor expression plasmid (MMV) using the calcium phosphate precipitation procedure (Di Nocera and David (1983) PNAS 80, 7095-7098). S2 cells were plated in 96 well format at a density of 2×10^5 in 166.6 μl of Schneider's Drosophila media supplemented with antibiotics and 10% heat inactivated fetal bovine serum (GIBO-BRL). […]

The subject of data set [2] is Heliothis virescens. Put plainly: Heliothis virescens ovo-larvicide, feeding/contact activity on eggs on artificial diet. The class given is in vivo. Particulars: 144 h, fresh eggs (0 to 24 hours old) on artificial diet, 6 days incubation, read-out: Insecticidal activity (EC80 ppm) Hv. How it is done: Heliothis virescens (abbreviated as Hv) (commonly known as tobacco budworm): ovo-larvicide, feeding/contact activity. 30 to 35 fresh eggs (0 to 24 hours old), deposited on filter paper, were placed in petri dishes on a layer of artificial diet and 0.8 mL of each test solution of cyanoenamine was individually pipetted onto them. After an incubation period of 6 days, samples were checked for egg mortality, larval mortality, and growth regulation.
Each of Spodopertera littoralis and Heliothis virescens is a larval form of an insect in the order Lepidoptera.

Data set [3] deals with Spodoptera littoralis. Put plainly: Spodoptera littoralis larvicide, feeding/contact activity on sprayed cotton leaf discs. The class given is in vivo. The conditions noted are these: foliar, L1 larvae on sprayed cotton leaf discs, checked 2 and 6 days after treatment, read-out: Insecticidal activity (EC80 ppm) SPODLI. From the text: Spodoptera littoralis (abbreviated as SPODLI) (commonly known as Egyptian cotton leafworm): larvicide, feeding/contact activity. Cotton leaf discs were placed on agar in petri dishes and individually sprayed with test solution of cyanoenamine in an application chamber. After drying, the leaf discs were infested with 20 to 25 L1 larvae. The samples were checked for mortality, repellent effect, feeding behavior, and growth regulation 2 and 6 days after treatment. Each of Spodopertera littoralis and Heliothis virescens is a larval form of an insect in the order Lepidoptera.

≈ marks a conversion by molar mass, not a printed value.

Turning to `CCc1ccc(C(=O)N/C(=C(/C#N)c2ccccc2)C(C)(C)C)cc1` [drawing 464], the “Gene switch activity fold induction” value in data set [1] was 394 fold induction.
The same measure, in the same setting: the same measure for `Cc1cc(C)cc(/C(C#N)=C(\NC(=O)c2cccc(Br)c2C)C(C)(C)C)c1` [drawing 458]: 1121 fold induction.
Regarding `COc1cccc(C(=O)N/C(=C(/C#N)c2cccc(C)c2)C(C)(C)C)c1C` [drawing 449], the EC80 in data set [2] and in data set [3] was 200 µg/mL (≈ 552 µM) throughout.
With `Cc1c(Br)cccc1C(=O)N/C(=C(/C#N)c1ccccc1)C(C)(C)C`, in data set [1], the “Gene switch activity fold induction” value is reported as 1112 fold induction.
Still for that read-out and setting: as for `CC(C)(C)/C(NC(=O)c1c(F)cccc1F)=C(\C#N)c1ccccc1` [drawing 459], the figure is 29 fold induction; as for `Cc1cc(C)cc(/C(C#N)=C(\NC(=O)c2cccc(C)c2C)C(C)(C)C)c1` [drawing 460], 893 fold induction.
As to `Cc1cccc(/C(C#N)=C(\NC(=O)c2cccc(Br)c2C)C(C)(C)C)c1` [drawing 444], the EC80 in data set [2] and in data set [3] was 200 µg/mL (≈ 486 µM) in each case.
On to `CC(C)(C)/C(NC(=O)c1c(F)cccc1F)=C(\C#N)c1ccccc1` [drawing 446], for which the concentration for an effect of 80% (EC80) in data set [2] and in data set [3] was greater than 100 µg/mL throughout.
Regarding `Cc1cccc(/C(C#N)=C(\NC(=O)c2cccc(C)c2C)C(C)(C)C)c1`, the “Gene switch activity fold induction” value in data set [1] was 66 fold induction.
Same read-out and setting: as for `Cc1cc(C)cc(/C(C#N)=C(\NC(=O)c2cccc(Cl)c2Cl)C(C)(C)C)c1`, the figure is 1145 fold induction; as for `Cc1cccc(C(=O)N/C(=C(/C#N)c2ccccc2)C(C)(C)C)c1C`, 636 fold induction.
On to `CCc1ccc(C(=O)N/C(=C(/C#N)c2ccccc2)C(C)(C)C)cc1` [drawing 450], for which the EC80 in data set [2] and in data set [3] was greater than 100 µg/mL throughout.
As for `Cc1cccc(/C(C#N)=C(\NC(=O)c2cccc(Br)c2C)C(C)(C)C)c1` [drawing 457], the “Gene switch activity fold induction” value in data set [1] is listed as 1012 fold induction.
With `Cc1c(Cl)cccc1C(=O)N/C(=C(/C#N)c1ccccc1)C(C)(C)C`, the “Gene switch activity fold induction” value in data set [1] is 191 fold induction.
For the molecule `COc1cccc(C(=O)N/C(=C(/C#N)c2ccccc2)C(C)(C)C)c1C`, the “Gene switch activity fold induction” value in data set [1] turned out to be 913 fold induction.
Take `Cc1cc(C)cc(/C(C#N)=C(\NC(=O)c2cccc(Cl)c2C)C(C)(C)C)c1` [drawing 443]: the EC80 in data set [2] was determined as 5 µg/mL (≈ 13.1 µM); in data set [3] it was 50 µg/mL (≈ 131 µM).
Consider `Cc1cc(C)cc(/C(C#N)=C(\NC(=O)c2cccc(Cl)c2C)C(C)(C)C)c1` [drawing 453], for which the “Gene switch activity fold induction” value in data set [1] was determined as 225 fold induction.
`Cc1cc(C)cc(/C(C#N)=C(\NC(=O)c2cccc(Br)c2C)C(C)(C)C)c1` [drawing 445]: the EC80 in data set [2] and in data set [3] was greater than 50 µg/mL in each case.
`COc1cccc(C(=O)N/C(=C(/C#N)c2cc(C)cc(C)c2)C(C)(C)C)c1C` [drawing 448]: the EC80 in data set [2] and in data set [3] was 100 µg/mL (≈ 266 µM) throughout.
In the case of `COc1cccc(C(=O)N/C(=C(/C#N)c2cc(C)cc(C)c2)C(C)(C)C)c1C` [drawing 462], the “Gene switch activity fold induction” value in data set [1] was found to be 314 fold induction.
In the case of `Cc1cc(C)cc(/C(C#N)=C(\NC(=O)c2cccc(C)c2C)C(C)(C)C)c1` [drawing 447], the EC80 in data set [2] and in data set [3] was 50 µg/mL (≈ 139 µM) in each case.
Take `COc1cccc(C(=O)N/C(=C(/C#N)c2cccc(C)c2)C(C)(C)C)c1C` [drawing 463]: in data set [1], the “Gene switch activity fold induction” value was determined as 364 fold induction.
In the case of `CCc1c(OC)cccc1C(=O)N/C(=C(/C#N)c1ccccc1)C(C)(C)C`, in data set [1], the “Gene switch activity fold induction” value amounted to 239 fold induction.
